Results from publication PMC7611821 (ACS synthetic biology, 2020).

Biological target: Ec-F1F0 (E. coli ATP synthase) (Escherichia coli, UniProt P0ABB0+P0ABB4)
Assay: NADH-driven ATP synthesis in proteoliposomes, luciferase luminescence
Assay type: biochemical
Settings: turnover only; 50 μM ADP, 20 mM Tris-PO4 pH 7.4, 5 mM MgCl2, 200 μM NADH, 20 °C

Ec-F1F0 (E. coli ATP synthase), sequence (P0ABB0 whole entry, looked up): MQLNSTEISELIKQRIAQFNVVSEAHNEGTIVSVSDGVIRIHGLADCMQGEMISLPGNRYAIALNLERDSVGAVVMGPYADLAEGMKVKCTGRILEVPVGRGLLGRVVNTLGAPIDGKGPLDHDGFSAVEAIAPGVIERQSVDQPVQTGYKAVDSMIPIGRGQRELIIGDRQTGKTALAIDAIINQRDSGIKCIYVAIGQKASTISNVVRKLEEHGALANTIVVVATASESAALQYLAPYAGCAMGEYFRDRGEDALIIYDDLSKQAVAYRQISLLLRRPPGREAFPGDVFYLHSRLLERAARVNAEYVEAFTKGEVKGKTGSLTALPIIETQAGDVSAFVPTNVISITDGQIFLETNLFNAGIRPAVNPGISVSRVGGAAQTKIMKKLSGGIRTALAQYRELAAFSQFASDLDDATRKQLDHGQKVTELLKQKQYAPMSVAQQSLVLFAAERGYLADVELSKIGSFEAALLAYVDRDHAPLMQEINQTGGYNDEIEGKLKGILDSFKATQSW
Ec-F1F0 (E. coli ATP synthase), sequence (P0ABB4 whole entry, looked up): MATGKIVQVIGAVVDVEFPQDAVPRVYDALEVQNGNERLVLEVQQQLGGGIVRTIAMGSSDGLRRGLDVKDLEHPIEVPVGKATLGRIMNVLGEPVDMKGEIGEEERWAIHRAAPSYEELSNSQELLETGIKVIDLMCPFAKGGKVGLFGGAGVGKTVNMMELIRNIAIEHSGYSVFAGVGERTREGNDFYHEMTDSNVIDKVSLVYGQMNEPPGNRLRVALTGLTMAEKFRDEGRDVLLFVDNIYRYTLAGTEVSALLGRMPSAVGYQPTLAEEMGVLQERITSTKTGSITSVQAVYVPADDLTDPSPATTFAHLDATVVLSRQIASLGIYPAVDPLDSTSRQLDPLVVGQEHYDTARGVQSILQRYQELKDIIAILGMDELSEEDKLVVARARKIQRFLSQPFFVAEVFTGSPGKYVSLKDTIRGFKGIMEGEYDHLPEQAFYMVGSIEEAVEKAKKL

`Nc1ncnc2c1ncn2[C@@H]1O[C@H](COP(=O)(O)OP(=O)(O)O)[C@@H](O)[C@H]1O` [ADP] was tested, and the “NADH-driven ATP synthesis in proteoliposomes, luciferase luminescence” value was “the Δp is used by Ec-F1F0 to generate ATP”.
